Test results as given in patent publication US10894794B1, “Substituted [1,2,4]triazolo[4,3-a]pyrazines as antidiabetics” (King Abdulaziz University, priority 2019, dated 2021).

System: 14 h overnight-fasted diabetic mice
Assay: Blood glucose after introduction of food for one hour (meal tolerance test)
Format: in vivo
Settings: for antihyperglycemic activity after introduction of food (blood glucose rise and total AUC(0-180), in words): 50 mg/kg, 3 h before introduction of food; for Area under the curve AUC(0-180) after meal feeding: Day 1, 50 mg/kg oral, 3 hr pretreated
Protocol: The rational of this test was to determine the ability of the tested compounds to modulate glucose utilization after the introduction of food, after 3 h of drug administration to 14 h overnight-fasted mice (feeding with normal diet was done for 1 hr only, then food was removed during the remaining time of the test). This model is analogous to oral glucose tolerance tests (OGTT) used clinically to evaluate glycemic control, except that the meal was composed of fats, proteins and carbohydrates, and thus was a more realistic representation of the nutritional makeup of normal food. The main purpose is that during meal digestion, food contents e.g. carbohydrates, proteins and fats, were reported to cause an increase in the production of the GLP-I from the L-cells in ileum and colon. The produced GLP-I goes into circulation directly and affects insulin secretion from pancreatic β-cells. Both the GPL-I and insulin levels are expected to be high especially in the presence of a […] inhibitor.
Animals were Distributed Between 17 Groups (n=6) as Follows: • a. Group 1. Animals of this group were overnight-fasted normoglycemic mice and received the vehicle (1% CMC-Na) at a volume of 10 ml/kg/day for 4 consecutive days. • b. Group 2: overnight-fasted diabetic mice received the vehicle (1% CMC-Na) at a volume of 10 ml/kg/day for 4 consecutive days and served as a negative control. • c. Group 3: overnight fasted diabetic mice received sitagliptin at a dose of 50 mg/kg/day for 4 consecutive days in 1% CMC (in a volume of 10 ml/kg) and served as positive control. • d. Groups 4-19: Animals of these groups were overnight-fasted diabetic mice and received the tested compounds 128, 129, 130, 131,140, 142 at a dose of 50 mg/kg/day for 4 consecutive days in 1% CMC (volume of 10 ml/kg). Food was introduced for one hour only then food was removed immediately. Blood glucose levels were determined just before and 3 h after drug administration and then at 0, 60, 120 and 180 min after meal. Blood Sampling and Blood Glucose Determination
Blood samples were collected from the tail vein and the blood glucose level was determined. Curves of blood glucose levels (mg/dL) versus the time intervals (min) were constructed and the area under the curves (AUCs) were calculated by the method of calculation embedded in GraphPad Prism® v. 5.0 (GraphPad Software, San Diego, Calif., USA). AUCs of the curves of the different groups were compared and tested for significance against control groups.

| SMILES | antihyperglycemic activity after introduction of food (blood glucose rise and total AUC(0-180), in words) | Area under the curve AUC(0-180) after meal feeding |
| --- | --- | --- |
| C[C@H](NC(=O)c1cccc(Cl)c1)C(=O)N1CCn2c(nnc2C(F)(F)F)C1 [GLP-130] | significant antihyperglycemic activity | 50478 ± mg · dL^−1 · min |
| O=C(CN1CCn2c(nnc2C(F)(F)F)C1)NC1CCCCC1 [GLP-140] | significant antihyperglycemic activity | 72873 ± mg · dL^−1 · min |
| N#Cc1cccc(NC(=O)CN2CCn3c(nnc3C(F)(F)F)C2)c1 [GLP-142] | significant antihyperglycemic activity | – |
